Counter-ions that a name gives are not always drawn.
Legend:
MCC13 cells (VN-MCC) = assay: qHTS cell viability (CellTiter-Glo, 72 h; primary and follow-up small molecule screen); assay type: cell-based, human
MCC26 cells (VN-MCC) = assay: as above; assay type: cell-based, human
UISO cells (VN-MCC) = assay: as above; assay type: cell-based, human
WAGA cells (VP-MCC) = assay: as above; assay type: cell-based, human
MKL-1 cells (VP-MCC) = assay: as above; assay type: cell-based, human
MKL-2 cells (VP-MCC) = assay: as above; assay type: cell-based, human
HACAT cells = assay: qHTS cell viability (CellTiter-Glo, 72 h; primary screen), control cell line; assay type: cell-based, human
HEK293T cells = assay: as above; assay type: cell-based, human
NIH-3T3 cells = assay: as above; assay type: cell-based, mouse
CRL-7250 cells = assay: as above; assay type: cell-based
[1] = tested on: MCC cell lines (WAGA, MKL-1, MKL-2, MCC13, MCC26, UISO); assay: qHTS cell viability, all six MCC cell lines as a group (mean AUC, MCC.avg); assay type: cell-based, human; conditions: NPC library
[2] = tested on: VP-MCC cell lines (WAGA, MKL-1, MKL-2); assay: qHTS cell viability, VP-MCC cell lines as a group (mean AUC, VP.MCC.avg); assay type: cell-based, human; conditions: for VP-MCC_Avg_AUC: mean AUC of VP-MCC cell lines
[3] = tested on: VN-MCC cell lines (MCC13, MCC26, UISO); assay: qHTS cell viability, VN-MCC cell lines as a group (mean AUC, VN.MCC.avg); assay type: cell-based, human; conditions: for VN-MCC_Avg_AUC: mean AUC of VN-MCC cell lines
[4] = tested on: control cell lines (HACAT, HEK293T, CRL-7250, NIH-3T3); assay: qHTS cell viability, control cell lines as a group (mean AUC, Control.avg); assay type: cell-based; conditions: NPC library; mean AUC of control cell lines
[5] = tested on: six MCC cell lines and four control cell lines; assay: qHTS cell viability, all 10 cell lines screened; assay type: cell-based; conditions: NPC library
[6] = NPC library, 8-point DRC, area under dose-response curve
[7] = NPC library, qHTS dose-response AUC, MCC13
[8] = NPC library, qHTS dose-response AUC, UISO
[9] = NPC library, qHTS dose-response AUC, WAGA
[10] = NPC library, qHTS dose-response AUC, MKL1
[11] = NPC library, qHTS dose-response AUC, MKL2
[12] = NPC library, 8-point DRC, control cell line
[13] = NPC library, qHTS dose-response AUC, HACAT control
[14] = NPC library, qHTS dose-response AUC, NIH3T3 control
[15] = NPC library, qHTS dose-response AUC, CRL7250 control
[16] = NPC library; qHTS dose-response AUC, MCC26
[17] = NPC library; qHTS dose-response AUC, HEK293T control
[18] = NPC library, therapeutic window: Control avg AUC minus VP-MCC avg AUC
[19] = NPC library, therapeutic window: Control avg AUC minus VN-MCC avg AUC
[20] = therapeutic window: Control avg AUC minus MCC avg AUC

Which results are given for `CSc1ccc2c(c1)N(CCC1CCCCN1C)c1ccccc1S2` (stereo not drawn) [Thioridazine]?
MCC13_AUC (MCC13 cells (VN-MCC); [6]): 405.187; MCC13_AUC (MCC13 cells (VN-MCC); [7]): 405.187; MCC13_AUC (MCC13 cells (VN-MCC); area under the dose-response curve, MCC13 cells, AUC<450 = reduced viability): 405.187; MCC26_AUC (MCC26 cells (VN-MCC); [6]): 403.828; MCC26_AUC (MCC26 cells (VN-MCC); NPC library, qHTS dose-response AUC, MCC26): 403.828; MCC26_AUC (MCC26 cells (VN-MCC); area under the dose-response curve, MCC26 cells; AUC<450 = reduced viability): 403.828; UISO_AUC (UISO cells (VN-MCC); [6]): 400.342; UISO_AUC (UISO cells (VN-MCC); [8]): 400.342; UISO_AUC (UISO cells (VN-MCC); area under the dose-response curve, UISO cells, AUC<450 = reduced viability): 400.342; WAGA_AUC (WAGA cells (VP-MCC); [6]): 416.169; WAGA_AUC (WAGA cells (VP-MCC); [9]): 416.169; WAGA_AUC (WAGA cells (VP-MCC); area under the dose-response curve, WAGA cells, AUC<450 = reduced viability): 416.169; MKL1_AUC (MKL-1 cells (VP-MCC); [6]): 412.834; MKL1_AUC (MKL-1 cells (VP-MCC); [10]): 412.834; MKL1_AUC (MKL-1 cells (VP-MCC); area under the dose-response curve, MKL-1 cells, AUC<450 = reduced viability): 412.834; MKL2_AUC (MKL-2 cells (VP-MCC); [6]): 356.973; MKL2_AUC (MKL-2 cells (VP-MCC); [11]): 356.974; MKL2_AUC (MKL-2 cells (VP-MCC); area under the dose-response curve, MKL-2 cells, AUC<450 = reduced viability): 356.974; HACAT_AUC (HACAT cells; [12]): 453.674; HACAT_AUC (HACAT cells; [13]): 453.674; HACAT_AUC (HACAT cells; area under the dose-response curve, HACAT control cells, AUC<450 = reduced viability): 453.674; HEK293T_AUC (HEK293T cells; [12]): 452.051; HEK293T_AUC (HEK293T cells; NPC library, qHTS dose-response AUC, HEK293T control): 452.051; HEK293T_AUC (HEK293T cells; area under the dose-response curve, HEK293T control cells; AUC<450 = reduced viability): 452.051; NIH3T3_AUC (NIH-3T3 cells; [12]): 457.937; NIH3T3_AUC (NIH-3T3 cells; [14]): 457.938; NIH3T3_AUC (NIH-3T3 cells; area under the dose-response curve, NIH3T3 control cells, AUC<450 = reduced viability): 457.938; CRL7250_AUC (CRL-7250 cells; [12]): 474.374; CRL7250_AUC (CRL-7250 cells; [15]): 474.374; CRL7250_AUC (CRL-7250 cells; area under the dose-response curve, CRL7250 control cells, AUC<450 = reduced viability): 474.374; MCC_Avg_AUC ([1]; mean AUC of all 6 MCC cell lines): 399.222; MCC_Avg_AUC ([1]; mean AUC of six MCC cell lines): 399.222; Control-VP-MCC ([2]; Control AUC minus VP-MCC AUC): 64.1836; Control-VP-MCC ([2]; NPC library, Control AUC minus VP-MCC AUC (therapeutic window)): 64.1836; Control-VN-MCC ([3]; Control AUC minus VN-MCC AUC): 56.3901; Control-VN-MCC ([3]; NPC library, Control AUC minus VN-MCC AUC (therapeutic window)): 56.3901; VN-MCC_Avg_AUC ([3]; NPC library): 403.119; Control_Avg_AUC [4]: 459.509; Control-MCC ([5]; Control AUC minus MCC AUC (therapeutic window)): 60.2868

`Cc1ccsc1C(=CCCN1CCC[C@@H](C(=O)O)C1)c1sccc1C` [Tiagabine hydrochloride] was tested. Which MCC13_AUC (MCC13 cells (VN-MCC); [7]) did it give?
Its MCC13_AUC is 504.961.

What about the MCC26_AUC (MCC26 cells (VN-MCC); [16]) of the same molecule?
Its MCC26_AUC is 535.626.

And the UISO_AUC (UISO cells (VN-MCC); [8])?
Its UISO_AUC is 537.732.

And the WAGA_AUC (WAGA cells (VP-MCC); [9])?
The WAGA_AUC was 356.213.

What about the MKL1_AUC (MKL-1 cells (VP-MCC); [10]) of the same molecule?
The MKL1_AUC was 342.483.

What about the MKL2_AUC (MKL-2 cells (VP-MCC); [11]) of the same molecule?
Its MKL2_AUC is 263.998.

What about the HACAT_AUC (HACAT cells; [13]) of the same molecule?
The HACAT_AUC was 471.067.

What about the HEK293T_AUC (HEK293T cells; [17]) of the same molecule?
Its HEK293T_AUC is 447.539.

And the NIH3T3_AUC (NIH-3T3 cells; [14])?
The NIH3T3_AUC was 484.889.

What about the CRL7250_AUC (CRL-7250 cells; [15]) of the same molecule?
The CRL7250_AUC was 426.76.

And the MCC_Avg_AUC ([1]; mean AUC of six MCC cell lines)?
Its MCC_Avg_AUC is 423.502.

And the VP-MCC_Avg_AUC ([2]; NPC library)?
The VP-MCC_Avg_AUC was 320.898.

And the Control-VP-MCC [2, 18]?
Its Control-VP-MCC is 136.666.

And the VN-MCC_Avg_AUC ([3]; NPC library)?
The VN-MCC_Avg_AUC was 526.106.

What about the Control-VN-MCC [3, 19] of the same molecule?
The Control-VN-MCC was -68.5423.

What about the Control_Avg_AUC [4] of the same molecule?
The Control_Avg_AUC was 457.564.

And the Control-MCC [5, 20]?
Its Control-MCC is 34.0617.

Which MCC13_AUC (MCC13 cells (VN-MCC); [7]) does the source give for `Clc1ccc(C(Cn2ccnc2)OCc2ccsc2Cl)c(Cl)c1` (stereo not drawn) [Tioconazole] here?
Its MCC13_AUC is 438.775.

And the MCC26_AUC (MCC26 cells (VN-MCC); [16])?
Its MCC26_AUC is 501.8.

What about the UISO_AUC (UISO cells (VN-MCC); [8]) of the same molecule?
Its UISO_AUC is 437.585.

What about the WAGA_AUC (WAGA cells (VP-MCC); [9]) of the same molecule?
Its WAGA_AUC is 248.268.

And the MKL1_AUC (MKL-1 cells (VP-MCC); [10])?
The MKL1_AUC was 310.311.

What about the MKL2_AUC (MKL-2 cells (VP-MCC); [11]) of the same molecule?
Its MKL2_AUC is 282.208.

And the HACAT_AUC (HACAT cells; [13])?
The HACAT_AUC was 488.14.

What about the HEK293T_AUC (HEK293T cells; [17]) of the same molecule?
Its HEK293T_AUC is 456.797.

And the NIH3T3_AUC (NIH-3T3 cells; [14])?
Its NIH3T3_AUC is 445.245.

What about the CRL7250_AUC (CRL-7250 cells; [15]) of the same molecule?
Its CRL7250_AUC is 480.608.

What about the MCC_Avg_AUC ([1]; mean AUC of six MCC cell lines) of the same molecule?
The MCC_Avg_AUC was 369.824.

And the VP-MCC_Avg_AUC ([2]; NPC library)?
Its VP-MCC_Avg_AUC is 280.262.

And the Control-VP-MCC [2, 18]?
The Control-VP-MCC was 187.435.

What about the VN-MCC_Avg_AUC ([3]; NPC library) of the same molecule?
Its VN-MCC_Avg_AUC is 459.387.

What about the Control-VN-MCC [3, 19] of the same molecule?
The Control-VN-MCC was 8.311.

And the Control_Avg_AUC [4]?
Its Control_Avg_AUC is 467.697.

What about the Control-MCC [5, 20] of the same molecule?
The Control-MCC was 97.8731.

For `c1ccc(CC2=NCCN2)cc1` [Tolazoline hydrochloride], which MCC13_AUC (MCC13 cells (VN-MCC); [7]) is on record?
The MCC13_AUC was 452.083.

And the MCC26_AUC (MCC26 cells (VN-MCC); [16])?
Its MCC26_AUC is 395.361.

What about the UISO_AUC (UISO cells (VN-MCC); [8]) of the same molecule?
The UISO_AUC was 451.588.

What about the WAGA_AUC (WAGA cells (VP-MCC); [9]) of the same molecule?
Its WAGA_AUC is 433.154.

And the MKL1_AUC (MKL-1 cells (VP-MCC); [10])?
The MKL1_AUC was 395.582.

And the MKL2_AUC (MKL-2 cells (VP-MCC); [11])?
The MKL2_AUC was 397.927.

And the HACAT_AUC (HACAT cells; [13])?
The HACAT_AUC was 471.166.

What about the HEK293T_AUC (HEK293T cells; [17]) of the same molecule?
Its HEK293T_AUC is 454.352.

And the NIH3T3_AUC (NIH-3T3 cells; [14])?
Its NIH3T3_AUC is 440.048.

And the CRL7250_AUC (CRL-7250 cells; [15])?
Its CRL7250_AUC is 475.841.

And the MCC_Avg_AUC ([1]; mean AUC of six MCC cell lines)?
The MCC_Avg_AUC was 420.949.

What about the VP-MCC_Avg_AUC ([2]; NPC library) of the same molecule?
The VP-MCC_Avg_AUC was 408.888.

And the Control-VP-MCC [2, 18]?
Its Control-VP-MCC is 51.4641.

What about the VN-MCC_Avg_AUC ([3]; NPC library) of the same molecule?
Its VN-MCC_Avg_AUC is 433.01.

What about the Control-VN-MCC [3, 19] of the same molecule?
The Control-VN-MCC was 27.3412.

And the Control_Avg_AUC [4]?
The Control_Avg_AUC was 460.352.

And the Control-MCC [5, 20]?
Its Control-MCC is 39.4026.
